The record followed here is patent US20090232838A1, “Ligands of melanocortin receptors” (priority 2005, published 2009).

The structures appear in SMILES notation. Read-outs that look alike come from different tables or passages of the source.

Holding throughout (type): cell-based
For one test, the target named is T1, hMC5-R (Homo sapiens, UniProt P33032).
T1 construct: expressed in transfected cells; host or cells: CHO-K1
The experiment in a line: cyclic AMP bioassay, hMC5-R.

The next test concerns the target T2, hMC3-R (Homo sapiens, UniProt P41968).
T2 construct: expressed in transfected cells; host or cells: CHO-K1
The test is described as follows: cyclic AMP bioassay, hMC3-R.

For a further test, the target named is T3, hMC4-R (Homo sapiens, UniProt P32245).
T3 construct: expressed in transfected cells; host or cells: CHO-K1
T3 sequence (P32245 whole entry): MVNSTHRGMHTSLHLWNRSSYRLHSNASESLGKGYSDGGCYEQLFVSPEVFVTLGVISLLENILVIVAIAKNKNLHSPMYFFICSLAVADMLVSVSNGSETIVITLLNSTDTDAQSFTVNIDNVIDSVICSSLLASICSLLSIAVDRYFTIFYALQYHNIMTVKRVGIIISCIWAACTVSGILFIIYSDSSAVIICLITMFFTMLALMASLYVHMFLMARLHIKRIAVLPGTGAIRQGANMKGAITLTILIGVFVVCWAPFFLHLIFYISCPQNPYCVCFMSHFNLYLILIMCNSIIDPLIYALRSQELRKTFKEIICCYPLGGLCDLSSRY
The test is described as follows: cyclic AMP bioassay, hMC4-R.

For the next test, the target named is T4, hMC1-R (Homo sapiens, UniProt Q01726).
T4 construct: expressed in transfected cells; host or cells: CHO-K1
T4 sequence (Q01726 whole entry): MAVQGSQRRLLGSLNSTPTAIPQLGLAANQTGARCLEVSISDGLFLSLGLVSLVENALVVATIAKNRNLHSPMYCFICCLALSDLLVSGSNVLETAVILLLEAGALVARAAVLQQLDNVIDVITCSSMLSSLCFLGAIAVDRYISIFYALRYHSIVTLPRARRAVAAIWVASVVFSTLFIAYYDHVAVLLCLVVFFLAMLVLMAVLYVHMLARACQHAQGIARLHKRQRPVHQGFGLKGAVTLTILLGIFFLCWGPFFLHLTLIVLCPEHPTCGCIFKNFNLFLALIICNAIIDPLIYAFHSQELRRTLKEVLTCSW
The test is described as follows: cyclic AMP bioassay, hMC1-R.

The mark [1] stands for this setting: Table 3A, cAMP in CHO-K1 cells, agonist, read-out: EC50 hMC5-R.
Setting [2] is: Table 3A, cAMP in CHO-K1 cells, antagonist potency by Schild analysis, read-out: Kb hMC3-R.
Setting [3] is: Table 3A, cAMP in CHO-K1 cells, antagonist potency by Schild analysis, read-out: Kb hMC4-R.
The mark [4] stands for this setting: Table 3A, cAMP in CHO-K1 cells, agonist, read-out: EC50 hMC1-R.

T2 sequence (P41968 whole entry): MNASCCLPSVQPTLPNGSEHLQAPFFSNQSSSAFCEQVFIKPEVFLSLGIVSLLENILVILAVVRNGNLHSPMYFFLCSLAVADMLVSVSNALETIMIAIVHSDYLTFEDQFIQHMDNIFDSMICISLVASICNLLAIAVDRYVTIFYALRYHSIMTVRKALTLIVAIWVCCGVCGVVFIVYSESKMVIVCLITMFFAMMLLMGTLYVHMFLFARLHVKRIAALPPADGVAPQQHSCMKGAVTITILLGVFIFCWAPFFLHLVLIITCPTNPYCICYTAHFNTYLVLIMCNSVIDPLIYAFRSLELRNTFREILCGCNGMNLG
T1 sequence (P33032 whole entry): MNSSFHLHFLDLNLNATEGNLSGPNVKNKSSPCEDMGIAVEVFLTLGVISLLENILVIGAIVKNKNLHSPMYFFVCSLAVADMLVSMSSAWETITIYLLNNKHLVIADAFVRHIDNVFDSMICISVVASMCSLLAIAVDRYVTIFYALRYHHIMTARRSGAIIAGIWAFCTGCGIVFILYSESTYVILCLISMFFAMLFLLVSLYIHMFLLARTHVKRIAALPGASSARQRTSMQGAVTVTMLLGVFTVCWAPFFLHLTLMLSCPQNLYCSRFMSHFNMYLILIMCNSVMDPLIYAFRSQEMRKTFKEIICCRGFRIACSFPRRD
Protocol for hMC3-R: (§1) Intracellular cyclic AMP (cAMP) levels were determined by an electrochemiluminescence (ECL) assay (Meso Scale Discovery®, Gaithersburg, Md.; referred to hereinafter as MSD). […] Transgenic CHO-K1 cells stably expressing hMC receptor subtypes 1, 3, 4 or 5 were dispensed at a density of approximately 7,000 cells/well in 384-well Multi-Arrays plates (MSD) containing integrated carbon electrodes and coated with anti-CAMP antibody. Increasing concentrations of the test compounds were added and the cells were incubated for approximately 40 minutes at approximately 37° C. […] At the end of the second incubation period read buffer (Tris-buffered solution containing an ECL co-reactant and Triton X-100 at ph 7.8) was added and the cAMP levels in the cell lysates were immediately determined by ECL detection with a Sector Imager 6000 Reader® (MSD). Data were analyzed using a computer-assisted non-linear regression analysis (XL fit; IDBS) and reported as either an EC50 value or a Kb value.
(§2) The Kb value reflects the potency of an antagonist and is determined by Schild analysis. In brief, concentration-response curves of an agonist are carried out in the presence of increasing concentrations of an antagonist. […] It is calculated by extrapolating the line on a Schild plot to zero on the y-axis.
Protocol for hMC4-R: as §1, §2
Protocol for hMC5-R: as §1, §2

Regarding `CC(=O)N[C@H]1CSSC[C@@H](C(=O)N2CCC[C@H]2C(=O)N2CCC[C@H]2C(=O)N[C@@H](CCCCN)C(=O)N[C@@H](CC(=O)O)C(=O)NCCC(=O)N[C@@H](Cc2ccc(O)cc2)C(=O)NCC(=O)N[C@@H](CCCNC(=N)N)C(=O)N[C@@H](CCCCN)C(=O)N[C@@H](CCCCN)C(=O)N[C@@H](CCCNC(=N)N)C(=O)N[C@@H](CCC(N)=O)C(=O)N[C@@H](CCCNC(=N)N)C(=O)N[C@@H](CCCNC(=N)N)C(=O)N[C@@H](CCCNC(=N)N)C(=O)N[C@@H](CCCNC(=N)N)C(N)=O)NC(=O)[C@H](C)NC(=O)[C@H](Cc2c[nH]c3ccccc23)NC(=O)[C@H](CCCNC(=N)N)NC(=O)[C@@H](Cc2ccc3ccccc3c2)NC(=O)[C@H](Cc2c[nH]cn2)NC(=O)[C@H](CCC(=O)O)NC1=O`, the figures for the EC50 at hMC5-R and at hMC1-R were 36.8 nM and 15.2 nM, respectively. Moreover, the Kb at hMC3-R stood at 14.6 nM; at hMC4-R it was 4.52 nM.
On to `CCCC[C@H](NC(C)=O)C(=O)N[C@H]1CSSC[C@@H](C(=O)NCCC(=O)N[C@@H](Cc2ccc(O)cc2)C(=O)NCC(=O)N[C@@H](CCCNC(=N)N)C(=O)N[C@@H](CCCNC(=N)N)C(=O)N[C@@H](CCCCN)C(=O)N[C@@H](CCCNC(=N)N)C(=O)N[C@@H](CCCNC(=N)N)C(=O)N[C@@H](CCC(N)=O)C(=O)N[C@@H](CCCNC(=N)N)C(=O)N[C@@H](CCCNC(=N)N)C(=O)N[C@@H](CCCNC(=N)N)C(N)=O)NC(=O)[C@H](Cc2c[nH]c3ccccc23)NC(=O)[C@H](CCCNC(=N)N)NC(=O)[C@@H](Cc2ccccc2)NC(=O)[C@H](Cc2c[nH]cn2)NC(=O)[C@@H](C)NC1=O`, for which the EC50 (commonly the concentration giving half of the maximal effect) on hMC5-R was determined as 1550 nM; at hMC3-R it was 4.7 nM; at hMC4-R, 0.422 nM; at hMC1-R, 5.66 nM.
On to `CCCC[C@H](NC(C)=O)C(=O)N[C@H]1CC(=O)NCCCC[C@@H](C(=O)N2CCC[C@H]2C(=O)N2CCC[C@H]2C(=O)N[C@@H](CCCCN)C(=O)N[C@@H](CC(=O)O)C(=O)NCCOCCOCC(=O)N[C@@H](Cc2ccc(O)cc2)C(=O)NCC(=O)N[C@@H](CCCNC(=N)N)C(=O)N[C@@H](CCCCN)C(=O)N[C@@H](CCCCN)C(=O)N[C@@H](CCCNC(=N)N)C(=O)N[C@@H](CCCNC(=N)N)C(=O)N[C@@H](CCC(N)=O)C(=O)N[C@@H](CCCNC(=N)N)C(=O)N[C@@H](CCCNC(=N)N)C(=O)N[C@@H](CCCNC(=N)N)C(N)=O)NC(=O)[C@H](Cc2c[nH]c3ccccc23)NC(=O)[C@H](CCCNC(=N)N)NC(=O)[C@@H](Cc2ccc3ccccc3c2)NC(=O)[C@H](Cc2c[nH]cn2)NC1=O`, for which the EC50 at hMC5-R (setting [1]) turned out to be 1.61 nM; on hMC1-R (setting [4]), 3.65 nM. For the same molecule, the Kb came to 19.4 nM on hMC3-R (setting [2]) and 3.73 nM on hMC4-R (setting [3]).
As to `CC(=O)N[C@H]1CSSC[C@@H](C(=O)N2CCC[C@H]2C(=O)N2CCC[C@H]2C(=O)N[C@@H](CCCCN)C(=O)N[C@@H](CC(=O)O)C(=O)NCCC(=O)N[C@@H](Cc2ccc(O)cc2)C(=O)NCC(=O)N[C@@H](CCCNC(=N)N)C(=O)N[C@@H](CCCCN)C(=O)N[C@@H](CCC(N)=O)C(=O)N[C@@H](CCCCN)C(=O)N[C@@H](CCCNC(=N)N)C(=O)N[C@@H](CCCNC(=N)N)C(=O)N[C@@H](CCCNC(=N)N)C(=O)N[C@@H](CCCNC(=N)N)C(=O)N[C@@H](CCCNC(=N)N)C(N)=O)NC(=O)[C@H](C)NC(=O)[C@H](Cc2c[nH]c3ccccc23)NC(=O)[C@H](CCCNC(=N)N)NC(=O)[C@@H](Cc2ccc3ccccc3c2)NC(=O)[C@H](Cc2c[nH]cn2)NC(=O)[C@H](CCC(=O)O)NC1=O`, the EC50 was determined as 62.4 nM on hMC5-R (setting [1]) and 7.9 nM on hMC1-R (setting [4]). For the same molecule, the Kb at hMC3-R (setting [2]) amounted to 41.7 nM; at hMC4-R (setting [3]) it was 10.9 nM.
